The record followed here is patent US20080261986A1, “PHARMACEUTICAL FORMULATIONS FOR IONTOPHORETIC DELIVERY OF AN ANTI-FUNGAL DRUG” (priority 2007, published 2008).

The format of series [1] is in vitro ADME. The following applies: 4 %, pH 3. Here is the method:
Nails soaked in normal saline for one hour were mounted on a nail adapter and sandwiched between the two chambers of the FDC. […] Anodal iontophoresis was carried out at 0.5 mA/cm^2 for 1 hr using a custom made constant DC power supply. For comparison, passive delivery of the same formulation was performed for 1 hr. For drug release studies, nails loaded with drug were washed to remove the surface drug and were mounted on FDCs. The receiver compartment was filled with pH 3 water. The donor chamber was empty but was covered with parafilm. The receiver compartment medium was sampled daily and the amount of drug released from the drug loaded nails was measured until the cumulative release attained a plateau. Drug delivered into the nail via iontophoresis released terbinafine HCl in a sustained release fashion over approximately 3 weeks at levels far greater than passively loaded nails which reached a plateau only after a few days (FIG. 11). The amount of drug released from iontophoretically loaded nails represented approximately 47% of the initial drug loaded. Undelivered drug was confined to the upper layers of the nail and was hypothesized to be either entrapped or keratin bound. […] Actual release may be slower in vivo since the nail is not in contact with a fluid reservoir with enhanced drug solubility and infinite sink conditions.

Series [2] can be described thus: Permeation through and loading in human nail, Franz diffusion cell. In kind it is in vitro ADME. Here is the method: Permeation experiments were conducted using human nails to further validate iontophoretic delivery. In these experiments intact full thickness whole cadaver finger nail plates (˜0.5-0.7 mm thickness) were trimmed to appropriate disks and used. Prehydrated (in saline for 60 min) nail disks were sandwiched between the donor and receptor compartments of Franz diffusion cell (FDC) using a nail adaptor to conform to the curvature of the nail. Terbinafine hydrochloride (10 mg/mL) in water and Tween80 was used in the donor compartment, and acidified water used in the receptor. Current density of 0.5 mA/cm^2 was applied for 1 hr after which the receptor levels were measured for permeation of terbinafine hydrochloride through the nail using similar methods as described in Example 3B. Additionally, nail disks were analyzed (after 1 hr of iontophoresis or passive delivery) for drug in the nail using similar extraction methods as described as follows. […]
Permeation experiments were conducted using human nails as described in Example 4 but the effect of current duration was investigated. Current density of 0.5 mA/cm^2 was applied for either 15, 30, 45, or 60 minutes and the receptor levels analyzed for amount of terbinafine hydrochloride that permeated through the nail (μg/cm^2) immediately afterwards and compared to passively delivered nails.

Where a name gives a salt, the structure may show the parent alone.

On to `CN(C/C=C/C#CC(C)(C)C)Cc1cccc2ccccc12` [terbinafine HCl, (E)-N-(6,6-dimethyl-2-hepten-4-ynyl)-N-methyl-1-naphthylmethamine hydrochloride], for which, in series [1], the “amount of drug released as share of the initial drug loaded” value was “approximately 47%” and the “duration of sustained release from iontophoretically loaded nails” value is given as “approximately 3 weeks”. In series [2] (10 mg/mL in water and Tween80, 0.5 mA/cm^2 for 1 hr), the “permeation through the nail and loading in the nail, iontophoresis versus passive” value was “increases permeation through the nail and loading in the nail compared to passive delivery”. For the same compound, the “iontophoretic permeation through the nail versus passive” value in series [2] (0.5 mA/cm^2 for 15, 30, 45, or 60 minutes) is given as “greater than passively delivered drug for all current durations tested”.
